“Also recorded” adds a separate entry of the source.
Key:
Assay type in all cases: in vivo
[1] = tested on: myocardial infarction model rat; test: PET test using model rat with myocardial infarction by coronary artery ligation; conditions: male SD rat, about 10 MBq tail vein, 20 minutes after administration, versus untreated rat
Protocol: A myocardial infarction model was prepared by coronary artery ligation using SD rats, and a thoracic contrast PET test was performed using the solution containing the compound of Example 1 (7-[^18F]FTO).
In a state in which an untreated rat or a model rat with myocardial infarction was anesthetized with the inhalation anesthetic isoflurane using a male SD rat, the rat was held in a supine body position on a PET camera Inveon (manufactured by Siemens), and the solution containing the compound (about 10 MBq) was administered from the tail vein. After 20 minutes from the administration, PET imaging was performed for 5 minutes. The PET image was reconstructed and then image processing was performed.

[2] = tested on: normal cynomolgus monkeys; test: PET test using normal cynomolgus monkey (SUV in heart muscle and bone ROI); conditions: for accumulation to the heart muscle compared to [^18F]FTO / non-specific accumulation to the bone compared to [^18F]FTO: cynomolgus monkey PET, result in words; for SUV (Heart muscle): heart muscle ROI, about 300 MBq lower extremity vein, male cynomolgus monkey; for SUV (Bone): bone ROI (near the spine), n.d. = target organ cannot be confirmed in the image, ROI cannot be set
Description: Solutions containing each compound prepared in Example 1 (7-[^18F]FTO), Example 2 (6-[^18F]FTO), Reference Example 4 ([^18F]FTO), Reference Example 5 (15-[^18F]FTO), and Reference Example 6 (17-[^18F]FTO) were used to perform a heart contrast PET test using normal cynomolgus monkeys.
For performing non-invasive PET imaging, in a state in which a male cynomolgus monkey was anesthetized with inhalation anesthetic isoflurane, the monkey was held at a supine body position on a PET camera SHR17000 (manufactured by Hamamatsu Photonics K.K.), the solution containing each compound (about 300 MBq) was administered from the lower extremity vein, and continuous imaging was performed for 180 minutes or 240 minutes after the administration. The PET images were reconstructed by dynamic row-action maximum likelihood algorithm (DRAMA) and average images are obtained every 20 minutes. Then, the region of interest (ROI) was set in the heart muscle region or bone (near the spine), and the accumulation (standardized uptake value (SUV)) of each compound was calculated as {radioactivity count in the ROI (MBq/cc)/[dose (MBq)/body weight (g)]}.
The SUV values quantified by setting the ROI for the heart muscle and the bone of each compound are shown in Tables 6 and 7 as SUV (heart muscle) and SUV (bone). […] A case where the target organ cannot be confirmed in the image and the ROI cannot be set is denoted as n.d, and a case where measurement is not performed is denoted as n.t. In addition, MIP (Maximum Intensity Projection) PET images 60 minutes and 240 minutes after the administration of the compounds of Reference Example 4 ([^18F]FTO) and Example 1 (7-[^18F]FTO) are shown in FIG. 1.

[3] = tested on: DBA2 mouse; test: PET test using normal mouse; radioactivity of isolated heart and femur by gamma counter; conditions: for SUV Femur: isolated femur; for SUV Femur / SUV Heart: 120 minutes after administration, about 10 MBq tail vein, male DBA2 mouse, gamma counter, average ± standard error of 5 cases; for SUV Heart: isolated heart
Protocol: A whole body contrast PET test was performed using the solution containing the compound of Example 1 (7-[^18F]FTO) or Reference Example 4 ([^18F]FTO) using a DBA2 mouse.
For performing non-invasive PET imaging, in a state in which a male DBA2 mouse was anesthetized with the inhalation anesthetic isoflurane, the mouse was held in a supine body position on a PET camera Inveon (manufactured by Siemens), the solution containing each compound (about 10 MBq) was administered from the tail vein, and after 90 minutes from the administration, PET imaging was performed for 5 minutes. The PET image was reconstructed and then image processing was performed. The heart and femur were isolated 120 minutes after the administration, and the amount of radioactivity was measured with a gamma counter 2480 WIZARD^2 (manufactured by PerkinElmer Inc.). The accumulation (SUV) of each compound was calculated as {radioactivity count (MBq/cc)/[dose (MBq)/body weight (g)] in the target organ}.

[4] = 20 Minutes after administration
[5] = 60 Minutes after administration
[6] = 120 Minutes after administration
[7] = 240 Minutes after administration
[8] = mouse, extracted organs, result in words

Structure (SMILES) | accumulation to the heart muscle compared to [^18F]FTO [2] | SUV (Heart muscle) [2, 4] | SUV (Heart muscle) [2, 5] | SUV (Heart muscle) [2, 6] | SUV (Heart muscle) [2, 7] | SUV Femur [3] | SUV Heart [3] | accumulation to the heart compared to Reference Example 4 [3, 8] | SUV (Bone) [2, 4] | SUV (Bone) [2, 5] | SUV (Bone) [2, 6] | non-specific accumulation to the bone compared to [^18F]FTO [2] | SUV (Bone) [2, 7] | coronal section PET image of the heart in the myocardial infarction model rat [1] | non-specific accumulation to the bone compared to [^18F]FTO ([2]; listed as 7-[^18F]FTO) | non-specific accumulation in the bone compared to Reference Example 4 [3, 8] | non-specific accumulation to the bone compared to [^18F]FTO ([2]; listed as 15-[^18F]FTO) | non-specific accumulation to the bone compared to [^18F]FTO ([2]; listed as 17-[^18F]FTO)
CCCCCCCC/C=C\CC([18F])CCSCCC(=O)O (stereo not shown) [Example 1, 3-{[(5Z)-3-[^18F]fluorotetradeca-5-en-1-yl]sulfanyl}propanoic acid] | further increased | 8.46 | 9.26 | 8.85 | 8.35 | 0.48 ± 0.04 | 3.53 ± 0.77 | excellent accumulation to the heart | – | – | – | – | – | the signal was deleted in a part of the elliptical heart | equivalent or reduced; also recorded: not detected at all | low non-specific accumulation in the bone | – | –
CCCCCCCC/C=C\CCC([18F])CSCCC(=O)O (stereo not shown) [Example 2, 3-{[(5Z)-2-[^18F]fluorotetradeca-5-en-1-yl]sulfanyl}propanoic acid] | further increased | 8.35 | 7.25 | 6.60 | – | – | – | – | 1.56 | 1.96 | 2.49 | equivalent or reduced | – | – | – | – | – | –
CCCC([18F])CCCC/C=C\CCCCSCCC(=O)O (stereo not shown) [Reference Example 5, 3-{[(5Z)-11-[^18F]fluorotetradeca-5-en-1-yl]sulfanyl}propanoic acid] | slightly reduced | 4.79 | 3.60 | 3.21 | 2.78 | – | – | – | 1.27 | 1.17 | 1.54 | – | 2.10 | – | – | – | equivalent or reduced; also recorded: the accumulation in the bone was also observed | –

Now from value to molecule, other results behind:

accumulation to the heart muscle compared to [^18F]FTO [2] | SUV (Heart muscle) [2, 4] | SUV (Heart muscle) [2, 5] | SUV (Heart muscle) [2, 6] | SUV (Heart muscle) [2, 7] | SUV Femur [3] | SUV Heart [3] | accumulation to the heart compared to Reference Example 4 [3, 8] | SUV (Bone) [2, 4] | SUV (Bone) [2, 5] | SUV (Bone) [2, 6] | non-specific accumulation to the bone compared to [^18F]FTO [2] | SUV (Bone) [2, 7] | Structure (SMILES) | coronal section PET image of the heart in the myocardial infarction model rat [1] | non-specific accumulation to the bone compared to [^18F]FTO ([2]; listed as 7-[^18F]FTO) | non-specific accumulation in the bone compared to Reference Example 4 [3, 8] | non-specific accumulation to the bone compared to [^18F]FTO ([2]; listed as 15-[^18F]FTO) | non-specific accumulation to the bone compared to [^18F]FTO ([2]; listed as 17-[^18F]FTO)
– | 6.45 ± 0.59 | 6.54 ± 0.51 | 5.90 ± 0.58 | 4.63 ± 0.57 | 2.03 ± 0.32 | 1.52 ± 0.25 | – | 1.42 ± 0.10 | 2.27 ± 0.13 | 3.82 ± 0.60 | – | 6.15 ± 1.02 | O=C(O)CCSCCCC/C=C\CCCCCCCC[18F] [Reference Example 4, 3-{[(5Z)-14-[^18F]fluorotetradeca-5-en-1-yl]sulfanyl}propanoic acid, reference compound] | – | – | – | – | –
slightly reduced | 5.88 | 5.78 | 4.86 | 2.60 | – | – | – | 1.11 | 1.28 | 1.94 | – | 3.23 | CC([18F])CCCCCC/C=C\CCCCSCCC(=O)O (stereo not shown) [Reference Example 6, 3-{[(5Z)-13-[^18F]fluorotetradeca-5-en-1-yl]sulfanyl}propanoic acid] | – | – | – | – | equivalent or reduced; also recorded: the accumulation in the bone was also observed

Source: patent US12029797B2, “Fatty acid derivative labeled with positron-emitting radionuclide” (ASTELLAS PHARMA INC., priority 2018, dated 2024)
